Experimental data: patent publication US20110263454A1, “Methods of Identifying Functional Characteristics of Promoters, Transcription Modifying Proteins and Transcription Modulating Agents” (Salk Institute for Biological Studies, priority 2008, published 2011)

What was measured:
hIRF7 promoter = test: NHR-promoter luciferase screen, hIRF7 promoter; type: cell-based, human; settings: for Normalized Luc. act., normalized to control / Luc. act., normalized to lacZ: IRF7 promoter reporter; for Normalized Luc. act., normalized to control: HR without or with its ligand, relative to control; for Luc. act., normalized to lacZ: hormone receptor (HR) without or with its ligand; for hIRF7 promoter reporter activity: transcription factor +/- ligand, control = 1.00
Procedure: (§1) The use, feasibility, and reproducibility of the functional NHR-promoter screen in a 48-well format have been tested validated. Briefly, there were co-expressed 50 ng of each NHR/NHR homodimer or NHR/RXR heterodimer with 100 ng promoter/luciferase construct and 50 ng of LacZ (as a control for transfection efficiency) in CV-1 cells using Fugene HD (Roche) as a transfection reagent (alternatively or additionally, a CMV-YFP construct can be used as a transfection control). Each of the nuclear hormone receptors that were used in these experiments was cloned into a pcDNA3.1 vector and comprised a C-terminally linked V5H6 tag. Twenty-four hours after transfection, appropriate ligands were added, where applicable, (see Table 5 for various ligands and concentrations and after 48 hrs, samples were assayed for luciferase and LacZ activity. To measure for luciferase activity 15 ul of sample was added to 30 ul of luciferase buffer (20 mM tricine, 1.07 mM MgCarbonate, 2.67 mM MgSulfate, 0.1 mM Naz-EDTA, 5 mM DTT, 5 mM ATP, 0.15 mg/ml CoA, 0.5 mM Luciferin), mixed briefly, and run in a Perkin Elmer Victor 5 luminometer. Thus, the functional NHR-promoter screen was used to observe the transcriptional activity of 29 promoters from various physiological pathways including inflammation, lipid and sugar metabolism, cholesterol transport, xenobiotic metabolism, and circadian rhythm.
(§2) The promoters that facilitate transcription of the indicated gene products that were tested using the protocols described herein are listed in the first row of the table. The nuclear hormone receptors and, where applicable, ligands that were assayed for their transcriptional effects on the promoters are listed in the first column of the table. The data represent the luciferase activity of each sample normalized to both the lacZ activity of that sample and to a control, e.g., no NHR or ligand, as customary in the art. As described previously, these normalizations allow the transcriptional activity of each reporter cell to be compared to other samples.
(§3) Tables 7-40 show the transcriptional effects of the hormone receptors, and, where applicable, ligands (orphan receptors are screened without ligand), on each individual promoter. […] The control data of each table are shown in their last rows.

hPPARg1 promoter = test: NHR-promoter luciferase screen, hPPARg1 promoter; type: cell-based, human; settings: for Luc. act., normalized to lacZ / Normalized Luc. act., normalized to control: PPARG1 promoter, hormone receptor with or without its ligand; for Normalized Luc. act., normalized to control: relative to control; for Results of assays of transcription factor (+/- ligand) with hPPARg1: Table 6d, luciferase activity relative to control (control = 1.00)
Procedure: as §1, §2, §3

mUCP3 promoter = test: NHR-promoter luciferase screen, mUCP3 promoter; type: cell-based, mouse; settings: for Normalized Luc. act., normalized to control / Luc. act., normalized to lacZ: mUCP3 promoter reporter; for Normalized Luc. act., normalized to control: HR without or with its ligand, relative to control; for Luc. act., normalized to lacZ: hormone receptor (HR) without or with its ligand; for mUCP3 promoter reporter activity: transcription factor +/- ligand, control = 1.00
Procedure: as §1, §2, §3

mLeptin promoter = test: NHR-promoter luciferase screen, mLeptin promoter; type: cell-based, mouse; settings: for Luc. act., normalized to lacZ / Normalized Luc. act., normalized to control: Table 7, mLeptin; for Results of assays of transcription factor (+/- ligand) with mLeptin: Table 6d, luciferase activity relative to control (control = 1.00); for luciferase/LacZ, mLeptin (selected results): mLeptin promoter-luciferase, NHR +/- ligand, control = 1.0
Procedure: as §1, §2, §3

mGhrelin promoter = test: NHR-promoter luciferase screen, mGhrelin promoter; type: cell-based, mouse; settings: for Luc. act., normalized to lacZ / Normalized Luc. act., normalized to control: Table 8, mGhrelin; for Results of assays of transcription factor (+/- ligand) with mGhrelin: Table 6d, luciferase activity relative to control (control = 1.00); for luciferase/LacZ, mGhrelin (selected results): mGhrelin promoter-luciferase, NHR +/- ligand, control = 1.0
Procedure: as §1, §2, §3

mPOMC promoter = test: NHR-promoter luciferase screen, mPOMC promoter; type: cell-based, mouse; settings: for Results of assays of transcription factor (+/- ligand) with mPOMC: Table 6d, luciferase activity relative to control (control = 1.00); for Luc. act., normalized to lacZ / Normalized Luc. act., normalized to control: mPOMC promoter, HR component with or without ligand; for Normalized Luc. act., normalized to control: relative to control
Procedure: as §1, §2, §3

Substance | Normalized Luc. act., normalized to control (hIRF7 promoter) | Luc. act., normalized to lacZ (hIRF7 promoter) | hIRF7 promoter reporter activity (hIRF7 promoter) | Luc. act., normalized to lacZ (hPPARg1 promoter) | Normalized Luc. act., normalized to control (hPPARg1 promoter) | Results of assays of transcription factor (+/- ligand) with hPPARg1 (hPPARg1 promoter) | Normalized Luc. act., normalized to control (mUCP3 promoter) | Luc. act., normalized to lacZ (mUCP3 promoter) | mUCP3 promoter reporter activity (mUCP3 promoter) | Luc. act., normalized to lacZ (mLeptin promoter) | Normalized Luc. act., normalized to control (mLeptin promoter) | Results of assays of transcription factor (+/- ligand) with mLeptin (mLeptin promoter) | Luc. act., normalized to lacZ (mGhrelin promoter) | Normalized Luc. act., normalized to control (mGhrelin promoter) | Results of assays of transcription factor (+/- ligand) with mGhrelin (mGhrelin promoter) | Results of assays of transcription factor (+/- ligand) with mPOMC (mPOMC promoter) | Luc. act., normalized to lacZ (mPOMC promoter) | Normalized Luc. act., normalized to control (mPOMC promoter) | luciferase/LacZ, mLeptin (selected results) (mLeptin promoter) | luciferase/LacZ, mGhrelin (selected results) (mGhrelin promoter)
AR: Androsterone Receptor (NR3C4), cDNA driver | 1.1 | 29.9 | 1.14 | 90.6 | 1.3 | 1.31 | 2.5 | 1.69 | 2.50 | 2.5 | 0.8 | 0.84 | 39.2 | 0.8 | 0.75 | 1.05 | 72.2 | 1.0 | – | –
ERR1: Estrogen Related Receptor α (NR3B1, ERRa), cDNA driver | 1.2 | 31.3 | 1.19 | 59.1 | 0.9 | 0.86 | 1.5 | 1.0 | 1.47 | 2.6 | 0.9 | 0.88 | 81.4 | 1.6 | 1.56 | 1.00 | 68.9 | 1.0 | – | –
GR: Glucocorticoid Receptor (NR3C1), cDNA driver | 0.7 | 18.9 | 0.72 | 37.2 | 0.5 | 0.54 | 0.9 | 0.59 | 0.88 | 1.7 | 0.6 | 0.58 | 14.3 | 0.3 | 0.27 | 0.50 | 34.5 | 0.5 | 0.6 | 0.3
LXRa: Liver X Receptor α (NR1H3), cDNA driver | 1.3 | 33.2 | 1.26 | 80.8 | 1.2 | 1.17 | 1.6 | 1.1 | 1.58 | 1.9 | 0.7 | 0.65 | 56.7 | 1.1 | 1.08 | 1.70 | 117.1 | 1.7 | – | –
NR4a1: NR4a1 (NR4A1; NUR77), nuclear hormone receptor cDNA driver | 2.3 | 61.0 | 2.31 | 129.6 | 1.9 | 1.88 | 2.1 | 1.40 | 2.07 | 2.3 | 0.8 | 0.80 | 54.5 | 1.0 | 1.04 | 3.58 | 246.9 | 3.6 | 0.8 | 1.0
PNR: Photoreceptor-specific Nuclear Receptor (NR2E3), cDNA driver | 1.0 | 27.5 | 1.04 | 45.9 | 0.7 | 0.67 | 0.8 | 0.5 | 0.79 | 2.0 | 0.7 | 0.68 | 32.4 | 0.6 | 0.62 | 0.81 | 56.0 | 0.8 | – | –
PPARa: Peroxisome proliferator activated receptor α (NR1C1), cDNA driver | 1.4 | 36.6 | 1.39 | 57.6 | 0.8 | 0.84 | 2.1 | 1.5 | 2.15 | 2.4 | 0.8 | 0.81 | 56.2 | 1.1 | 1.07 | 1.13 | 77.6 | 1.1 | – | –
PPARg: Peroxisome proliferator activated receptor γ (NR1C3), cDNA driver | 1.7 | 44.8 | 1.70 | 75.7 | 1.1 | 1.10 | 1.8 | 1.2 | 1.83 | 2.9 | 1.0 | 1.00 | 93.9 | 1.8 | 1.80 | 1.57 | 108.0 | 1.6 | 1.0 | 1.8
